Reference: publication PMC10384572, “Marine Meroterpenoids Isolated from Gongolaria abies-marina Induce Programmed Cell Death in Naegleria fowleri” (Pharmaceuticals, 2023)
Like-named read-outs stand apart in the source and are kept apart here.

What was measured:
N. fowleri ATCC® 30808 = test: In vitro activity against N. fowleri trophozoites (alamarBlue), strain ATCC 30808; assay type: cell-based, Naegleria fowleri; conditions: for IC90 / IC50: Naegleria fowleri; for Anti-Naegleria activity (in words): both tested strains of N. fowleri
Method: (§1) The in vitro activity against N. fowleri trophozoites was evaluated in two different strains from the American Type Culture Collection (LG Promochem, Barcelona, Spain), ATCC® 30808™ and ATCC® 30215™. Cells were axenically grown in 2% Bactocasitone (w/v) medium (Thermo Fisher Scientific, Madrid, Spain) at 37 °C. Moreover, 10% (v/v) of fetal bovine serum (FBS) 0.3 μg/mL of Penicillin G Sodium Salt and 0.5 mg/mL of Streptomycin sulphate (Sigma-Aldrich, Madrid, Spain) were also added to the Bactocasitone medium.
(§2) For these assays, a colorimetric assay was conducted using the alamarBlue® reagent. Briefly, N. fowleri trophozoites were seeded in duplicate in a 96-well microtiter plate. After that, different concentrations of the evaluated meroterpenoids diluted in fresh Bactocasitone were added to the wells. The negative control consisted on the trophozoites incubated with the medium alone. Lastly, the alamarBlue® (Life Technologies, Madrid, Spain) reagent was added. Plates were incubated in slight agitation at 37 °C. After 48 h, the fluorescence of the wells was analyzed in an EnSpire Multimode Plate Reader (Perkin Elmer, Madrid, Spain) using a wavelength of excitation of 570 nm and a wavelength of emission of 585 nm.
(§3) In order to calculate the IC50 and IC90, a nonlinear regression analysis with a 95% confidence limit was performed.
(§4) The in vitro IC50, IC90, and CC50 of the compounds were determined by a non-linear regression with a 95% confidence limit. The SigmaPlot 12.0 software (Systat Sofware Inc., London, UK) was used to perform the data analysis using a paired two-tailed t-test. Values of p < 0.05 were considered significant. The data represent the mean value and the SD of the conducted three different experiments.

N. fowleri ATCC® 30215 = test: In vitro activity against N. fowleri trophozoites (alamarBlue), strain ATCC 30215; assay type: cell-based; conditions: Naegleria fowleri, ATCC30215, 48 h, mean ± SD
Method: as §1, §2, §3, §4

[1] = In vitro cytotoxicity against murine macrophages (alamarBlue); assay type: cell-based; conditions: mouse, J774A.1 murine macrophages (ATCC TIB-67), murine macrophages J774A.1, 24 h, mean ± SD
Method: (§5) Murine macrophages from the J774A.1 cell line (ATCC® TIB-67) were maintained in Dulbecco’s Modified Eagle’s medium (DMEM) in order to evaluate the toxicity of the compounds. In addition, 10% (v/v) FBS and 10 μg/mL gentamicin (Sigma-Aldrich, Madrid, Spain) were added to the growth medium. Cells were grown in a 5% CO2 atmosphere at 37 °C.
(§6) For the cytotoxicity assays, the same protocol as detailed in Section 4.4 above was used. Murine macrophages were incubated with serial dilutions of the evaluated compounds at 37 °C in a 5% CO2 atmosphere over 24 h. The obtained data were analyzed as described in the previous section in order to calculate the CC50.
as §4

[2] = tested on: Murine macrophages J774A.1 (ATCC® TIB-67); test: as above; assay type: cell-based; conditions: murine macrophages J774A.1, 24 h, mean ± SD
Method: as §5, §6, §4

[3] = tested on: N. fowleri ATCC® 30808 trophozoites; test: Mitochondrial membrane potential (JC-1); assay type: cell-based, Naegleria fowleri; conditions: IC90 of compound, 24 h
Method: The evaluation of the programmed cell death induction by the meroterpenoids was performed in the ATCC® 30808™ N. fowleri trophozoites. Cells were incubated over 24 h with the IC90 (Table 1) of the compounds at 37 °C. In these experiments, the presence of different metabolic events which are characteristics of the programmed cell death process were evaluated. For this, five different apoptosis events marker kits (the Hoechst 33342/Propidium Iodide, SYTOX™ Green kit, CellROX® Deep Reagent, JC-1 Mitochondrial Membrane Potential Detection Kit, and the Celltiter-Glo® Luminescent Cell Viability Assay) were used according to manufacturer’s instructions. Furthermore, the percentage of stained cells was determined after incubating the treated and non-treated cells with the stains. The mitochondrial damage was evaluated using two different reagents. Firstly, the JC-1 Mitochondrial Membrane Potential Detection Kit (Cayman Chemicals Vitro SA, Madrid, Spain) was used to assess the failure of the mitochondrial membrane potential. Cells were incubated with the compounds at 37 °C to finally add the JC-1 reagent after 24 h. The JC-1 dye is presented in the mitochondria of untreated cells in aggregate form and emits red fluorescence. However, when the membrane potential decreases (unhealthy cells) the dye is presented in monomers, emitting green fluorescence. Images were obtained with an EVOS™ M5000 Imaging System (Invitrogen by Thermo Fisher Scientific). In the PCD assays, the number of stained and unstained cells was measured after the performance of the experiments. Regarding the JC-1 Mitochondrial Membrane Potential assays, the ratio between the emitted red fluorescence (at 595 nm) and green fluorescence (at 535 nm) was determined. For each kit, images (×40) with at least 80 cells were selected and analyzed. […] The graphs illustrate the mean value ± SD of three different tests. Finally, a one-way analysis of variance (ANOVA) was assessed to determine the statistical differences between the treated cells and the negative control amoebae, ** p < 0.01; *** p < 0.001; **** p < 0.0001 significant differences.

[4] = ATCC30808, N. fowleri trophozoites, 48 h, alamarBlue, mean ± SD
[5] = ATCC30808, N. fowleri trophozoites, 48 h, alamarBlue, mean ± SD, read-out: IC50 ATCC® 30808
[6] = ATCC 30215 / ATCC 30808, range over the named compounds and both strains (ATCC 30808 and ATCC 30215), read-out: IC50 against N. fowleri

| Compound | IC90 (N. fowleri ATCC® 30808; [4]) [µM] | IC50 (N. fowleri ATCC® 30808; [5]) [µM] | Anti-Naegleria activity (in words) (N. fowleri ATCC® 30808) | Selectivity index (SI) (N. fowleri ATCC® 30808; cytotoxicity in murine macrophages versus activity against N. fowleri) | IC50 (N. fowleri ATCC® 30215) [µM] | IC90 (N. fowleri ATCC® 30215) [µM] | CC50 at 24 h [1] [µM] | CC90 at 24 h [1] [µM] | CC50 [2] [µM] | Mitochondrial membrane potential (JC-1) [3] | IC50 (N. fowleri ATCC® 30808; [6]) [µM] |
| --- | --- | --- | --- | --- | --- | --- | --- | --- | --- | --- | --- |
| COc1c(C)cc(O)cc1C/C=C(\C)CC(=O)/C=C(\C)CCCC(C)=O [Cystomexicone B (6), cystomexicone B] | 206 ± 16.6 | 58.9 ± 10.1 | active | > 8.5 | 58.1 ± 5.85 | 260 ± 41.1 | > 279 | > 500 | > 500 | mitochondrial membrane potential disruption |  |
| COc1c(C)cc(O)cc1C/C=C(\C)CC(=O)C/C(C)=C/CC[C@@H](C)C(=O)/C=C/C(C)(C)O [Gongolarone B (1), gongolarone B] | 58 ± 1.73 | 21.9 ± 1.6 | active |  | 18.9 ± 0.94 | 68.3 ± 1.73 | 25.6 ± 4.16 | 72.9 ± 5.94 |  | mitochondrial membrane potential disruption |  |
| COc1c(C)cc(O)cc1C/C=C(\C)CC(=O)/C=C(\C)CCC[C@@H](C)C(=O)/C=C/C(C)(C)O [1′Methoxyamentadione (3), 1′-methoxyamentadione] | 64.9 ± 6.94 | 19.9 ± 5.27 | active |  | 16.5 ± 0.96 | 59.7 ± 20.2 | 26.2 ± 2.25 | 68.7 ± 7.46 |  | mitochondrial membrane potential disruption | 13.3 to 20.4 |
| COc1c(C)cc(O)cc1C/C=C(\C)CC(=O)/C=C(/C)CCC[C@@H](C)C(=O)/C=C/C(C)(C)O [6Z-1′Methoxyamentadione (2), 6Z-1′-methoxyamentadione] | 55.3 ± 8.28 | 20.4 ± 4.07 | active |  | 13.3 ± 0.96 | 44.2 ± 14.9 | 26.6 ± 4.03 | 67.2 ± 6.32 |  | mitochondrial membrane potential disruption | 13.3 to 20.4 |
